Patent EP0292170A2, “Enzyme immunoassay” (Bayer Corporation, priority 1987, dated 1988)

Tested on: antibody to phenytoin
Assay: Immunoreactivity: conjugate activity in the phosphorylase kinase reaction mixture in the presence of monoclonal antibody to phenytoin
Assay type: biochemical
Settings: same reaction mixture, antibody added

SMILES: Nc1ncnc2c1ncn2[C@@H]1O[C@H](COP(=O)(O)OP(=O)(O)OP(=O)(O)O)[C@@H](O)[C@H]1O [ATP, adenosine triphosphate]
- inhibition of activity by antibody: No inhibition
